Assay results as given in PMC3207826, “Phase I Evaluation of STA-1474, a Prodrug of the Novel HSP90 Inhibitor Ganetespib, in Dogs with Spontaneous Cancer” (PLoS ONE, 2011).
Entries after “also recorded” stand apart in the source; their conditions may differ. One block for each compound: values may come before it.

How the values were obtained:
[1] = Ganetespib pharmacokinetics in plasma after STA-1474 infusion (LC-MS/MS); assay type: in vivo, dogs; details: for half-life / AUC(0-t) / Cmax / Tmax: iv, STA-9090 in plasma, mean, day 1
Description: Plasma samples were collected on day 1 and day 22 of therapy at the specified intervals: before and after dosing at 30, 60, 90, 120, 180, 300 (5 hr), 540 (9 hr), and 1440 (24 hr) minutes relative to the start of dosing. On day 8, day 15, and day 29, plasma was collected before dosing only. Approximately 1 ml of blood was drawn from an indwelling catheter, placed in a sodium heparin vacuum glass tube, and placed on ice until centrifugation. Blood samples were centrifuged at 3300 rpm for 10 minutes, within 30 minutes of collection. Plasma was transferred by pipette into two cryovials and stored at −80°C until analysis.
Plasma concentrations of ganetespib were determined using a qualified liquid chromatography tandem mass spectrometry (LC-MS/MS) method. Samples were analyzed on an HPLC system consisting of an Agilent HP1100 separation module (Santa Clara, CA) coupled to an AB SCIEX API400 MS/MS detector (Foster City, CA). Stable isotope-labeled ganetespib was used as an internal standard. Sample extraction was performed by a liquid-liquid extraction method with 25 µL plasma samples and 800 µL methyl tertiary butyl ether. The organic phase of samples was evaporated to dryness under nitrogen and reconstituted with water/acetonitrile solution for injection. Chromatographic separation was achieved on a reverse-phase analytical column (4 µm particle, 50×2.0 mm i.d.) with gradient elution of water/0.1% formic acid and acetonitrile/0.1% formic acid at a flow rate of 500 µL/min. The total run time was 4 min. Quantitation was achieved by MS/MS detection in positive ion mode by multiple reaction monitoring. The lower limit of quantitation (LLOQ) was 1.00 ng/mL, with a concentration range from 1.00 to 1000 ng/mL.
The pharmacokinetic parameters for ganetespib were determined from the plasma concentration data using the Noncompartmental Analysis module in WinNonlin, version 5.2 (Pharsight Corporation, St.Louis, MO). The predose samples that measured below the LLOQ (BQL) were treated as zero for the calculations. Maximum concentration (Cmax) and time of maximum concentration (Tmax) were directly determined from the observed concentration-time profiles. The area under the plasma concentration-time curve (AUC) was estimated by the linear trapezoidal rule. The apparent half-life (t1/2) was calculated as t1/2 = 0.693/λ where λ was the elimination rate constant estimated from the regression of the terminal slope of the concentration versus time curve.

[2] = system: canine MCT and OSA cell lines; details: cited from earlier work; for activity compared with 17-AAG: OSA and MCT cell lines
human cancer cell lines = system: human cancer cell lines; parameters: method as in earlier work; details: in vitro; 15 and unpublished data, Synta Pharmaceuticals Corp.; cited from earlier work
MCT xenograft = details: murine MCT xenograft model; cited from earlier work
[3] = Toxicity assessment (VCOG-CTCAE grades) in Phase I trial; assay type: in vivo, dogs
Description: This study was a Phase I dose escalating, open label assessment of the safety and pharmacokinetics of STA-1474 in client owned dogs with spontaneous malignancies. Dogs were administered STA-1474 on one of three dosing regimens and were evaluated weekly or twice per week dependent on the regimen used. Assessment of clinical toxicities and tumor response was performed at each visit. Dogs were evaluated for hematologic and biochemical toxicities every 7 days with routine bloodwork. The initial dose of STA-1474 was set at 7 mg/kg based on previous data from normal laboratory dogs (data not shown) and dose escalation was set at 2.5 mg/kg increments in cohorts of 3 until dose limiting toxicity (DLT) was identified. The DLT was considered to be any grade 3 or 4 hematologic or non-hematologic toxicity based on the established VCOG-CTAE criteria. […] Disease progression or signs and symptoms definitely related to disease were not considered adverse events (AEs).
Each patient underwent a baseline complete history, physical examination, and predose laboratory assessment that included a complete blood count (CBC), serum biochemistry profile, and urinalysis. Patients were assessed for adverse events on days 8, 15, 22, and 29, at which time a complete blood count with differential and clinical chemistry were performed. Urinalysis was performed at baseline and repeated only if indicated. Stipulations regarding minimal hematological requirements to continue dosing were included in the protocol: hematocrit >25%, neutrophils >[…], platelets >[…]. In addition, liver transaminases were required to be <4X upper limit of normal with a normal total bilirubin and serum creatinine to continue STA-1474 therapy.

spontaneous tumors = experiment: Tumor response assessment (RECIST); assay type: in vivo, dogs
Description: Tumor assessments were completed prior to study entry, and days 8, 15, 22, and 29. For dogs that continued beyond the planned 4 doses of STA-1474, response assessments were performed every 3–6 weeks thereafter, or at the time of suspected tumor progression. Responses were assessed by the investigator according to pre-defined protocol criteria. The response in dogs with assessable disease was performed by clinical examination, radiography, ultrasonography, or CT scans. Many lesions were not amenable for quantitative radiographic imaging, but were followed either by serial clinical examination (superficial lesions; palpable lymph nodes) or by ultrasonography (abdominal lymph nodes). Thoracic lesions were assessed by thoracic radiography and nasal lesions by CT scan.
The response in dogs with measurable disease was judged by the investigator on the basis of RECIST criteria. A complete response (CR) was defined as disappearance of all disease on two measurements separated by a minimum period of 3 weeks. A partial response (PR) was defined as greater than 30% reduction in the sum of the longest diameter of the target lesions documented by two assessments separated by at least 3 weeks. An increase of >20% in the size of all measurable tumor areas as measured by the sum of longest diameters of the target lesions taken as reference the smallest sum since initiation of therapy, or the appearance of any new lesion(s) would qualify as progressive disease (PD). A mixed response (MR) was defined as PR in some target lesions with PD in other target lesions. Stable disease (SD) was defined by the absence of criteria for either a response or progression. Dogs who had no evidence of tumor progression and who had not experienced any unacceptable toxicity were eligible for extended treatment cycles. Dose escalation in an individual dog was permitted if the dog was tolerating therapy.

HSP70 = experiment: Evaluation of HSP70 expression in tumor biopsies and PBMCs (ELISA, Western blot); assay type: in vivo, dogs
HSP90 = experiment: Evaluation of tumor biopsies for HSP90 expression (Western blot); assay type: in vivo, dogs; details: tumor samples, 24 hrs following treatment, 5 mg/kg over 1 hour
Description: Frozen tumor samples were processed as described above, then resuspended in 100–150 uL of lysis buffer consisting of 20 mM Tris-HCl pH 8.0, 137 mM NaCl, 10% glycerol, 1% IGEPAL CA-630, 10 mM ethylenediaminetetraacetic acid (EDTA), 1 mg/mL aprotinin, 1 mg/mL leupeptin, 1 mg/mL pepstatin A, 1 mM phenylmethysulphonyl fluoride, 1 mM sodium orthovanadate, 10 mM sodium fluoride (all from Sigma, St. Louis, MO). Sample were rocked at 4°C for 1 hour, and then centrifuged for 15 minutes at 13,000 RCF. A Bradford protein assay was performed on the lysates using BioRad Reagent (Hercules, CA). 60–100 µg of protein were separated by SDS-page, and transferred to PVDF membranes. The membranes were incubated overnight with anti-HSP90 antibodies (Cell Signaling Technology, Danvers, MA), washed, then incubated with horseradish peroxidase linked secondary antibody. Membranes were washed again, then exposed to Super Signal West Dura Extended Duration Substrate (Pierce, Rockford, IL) Membranes were stripped, washed, and reprobed for β-Actin (Santa Cruz Biotechnology, Santa Cruz, CA) using the SNAP i.d. apparatus (Millipore, Billerica, MA) according to manufacture's instructions.

OSA xenografts = details: cited from earlier work
[4] = dog, plasma, 5 mg/kg, STA-1474 5 mg/kg, 1 h infusion, twice weekly
[5] = dog, plasma, 9.5 mg/kg, STA-1474 9.5 mg/kg, 1 h infusion, once weekly
[6] = dog, plasma, 9.5 mg/kg, STA-1474 9.5 mg/kg, 8 h infusion, once weekly
[7] = 1 hr/2x week, 5.0 mg/kg, 7 dogs

sustained blood levels ([1]; dog with oral melanoma, extravasation (mostly subcutaneous) of STA-1474, first dosing cohort): 200 to 600 ng/mL | duration of sustained blood levels ([1]; dog with oral melanoma, extravasation of STA-1474, levels between 200–600 ng/ml): 8 to 10 h | half-life ([1]; dog, STA-1474 5 mg/kg, 1 h infusion, twice weekly): 6.1 h | half-life ([1]; dog, STA-1474 9.5 mg/kg, 1 h infusion, once weekly): 5.6 h | AUC ([1]; dog, plasma, intravenous, range over the three dosing regimens of STA-1474): 5010 to 5700 ng·h/mL | AUC(0-t) [1, 4]: 5010 ng·h/mL | Cmax [1, 4]: 3420 ng/mL | Tmax [1, 4]: 1.1 h | AUC(0-t) [1, 5]: 5700 ng·h/mL | Cmax [1, 5]: 3980 ng/mL | Tmax [1, 5]: 0.7 h | AUC(0-t) [1, 6]: 5600 ng·h/mL | Cmax [1, 6]: 802 ng/mL | Tmax [1, 6]: 5.7 h
Compound: CC(C)c1cc(-c2n[nH]c(=O)n2-c2ccc3c(ccn3C)c2)c(O)cc1O [ganetespib]
activity compared with 17-AAG [2]: superior activity | concentrations for biologic effects, lower than those for 17-AAG ([2]; canine MCT and OSA cell lines): at least 1 log | concentrations killing cancer cell lines (human cancer cell lines): low nanomolar concentrations | tumor growth (MCT xenograft): inhibited tumor growth

Compound: CC(C)c1cc(-c2nnc(O)n2-c2ccc3c(ccn3C)c2)c(O)cc1OP(=O)(O)O [STA-1474]
Anorexia grade 1 (count) [3, 7]: 3 | Anorexia grade 2 (count) [3, 7]: 5 | Diarrhea grade 1 (count) [3, 7]: 5 | Diarrhea grade 2 (count) [3, 7]: 1 | Diarrhea grade 3 (count) [3, 7]: 1 | Lethargy grade 1 (count) [3, 7]: 4 | Lethargy grade 2 (count) [3, 7]: 2 | Anorexia grade 2 (count) ([3]; 1 hr/week, 7.0 mg/kg, 4 dogs): 2 | Diarrhea grade 1 (count) ([3]; 1 hr/week, 7.0 mg/kg, 4 dogs): 2 | Diarrhea grade 2 (count) ([3]; 1 hr/week, 7.0 mg/kg, 4 dogs): 3 | Lethargy grade 1 (count) ([3]; 1 hr/week, 7.0 mg/kg, 4 dogs): 2 | Vomiting grade 1 (count) ([3]; 1 hr/week, 7.0 mg/kg, 4 dogs): 3 | Diarrhea grade 1 (count) ([3]; 1 hr/week, 9.5 mg/kg, 5 dogs): 1 | Diarrhea grade 3 (count) ([3]; 1 hr/week, 9.5 mg/kg, 5 dogs): 1 | Lethargy grade 2 (count) ([3]; 1 hr/week, 9.5 mg/kg, 5 dogs): 1 | Lethargy grade 3 (count) ([3]; 1 hr/week, 9.5 mg/kg, 5 dogs): 1 | Vomiting grade 2 (count) ([3]; 1 hr/week, 9.5 mg/kg, 5 dogs): 2 | Anorexia grade 2 (count) ([3]; 1 hr/week, 10.25 mg/kg, 3 dogs): 3 | Diarrhea grade 2 (count) ([3]; 1 hr/week, 10.25 mg/kg, 3 dogs): 3 | Lethargy grade 2 (count) ([3]; 1 hr/week, 10.25 mg/kg, 3 dogs): 3 | Vomiting grade 2 (count) ([3]; 1 hr/week, 10.25 mg/kg, 3 dogs): 1 | Anorexia grade 1 (count) ([3]; 8 hr/week, 9.5 mg/kg, 6 dogs): 5 | Anorexia grade 2 (count) ([3]; 8 hr/week, 9.5 mg/kg, 6 dogs): 4 | Diarrhea grade 1 (count) ([3]; 8 hr/week, 9.5 mg/kg, 6 dogs): 4 | Diarrhea grade 2 (count) ([3]; 8 hr/week, 9.5 mg/kg, 6 dogs): 4 | Lethargy grade 1 (count) ([3]; 8 hr/week, 9.5 mg/kg, 6 dogs): 2 | Vomiting grade 2 (count) ([3]; 8 hr/week, 9.5 mg/kg, 6 dogs): 3 | maximum tolerated weekly dose ([3]; administered weekly over 1 or 8 hours, intravenous): 9.5 mg/kg | hematologic or biochemical toxicities ([3]; any doses or regimens): No drug-related hematologic or biochemical toxicities; also recorded: no evidence of hematologic toxicity | dogs with partial responses (spontaneous tumors; 5 mg/kg over one hour twice per week, 7 dogs, both MCTs): 2 | objective responses (spontaneous tumors; 1 hr once per week dosing regimen, n = 12, exception one dog with oral malignant melanoma after extravasation): no objective responses | biologic activity rate (spontaneous tumors; 8 hour infusion group, 9.5 mg/kg once weekly, 2PR, 1 MR, 2 SD of 6): 83% | response rate (measurable objective responses) (spontaneous tumors; all dogs, 6/25): 24% | overall biological activity (objective responses plus stable disease >10 weeks) (spontaneous tumors; all dogs, 9/25): 36% | duration of mixed response (spontaneous tumors; metastatic MCT, 8 hour infusion 9.5 mg/kg): 16 weeks | duration of partial response (spontaneous tumors; metastatic OSA, 8 hour infusion 9.5 mg/kg): 20 weeks | duration of partial response (spontaneous tumors; metastatic thyroid carcinoma, 8 hour infusion 9.5 mg/kg): 36 weeks | duration of stable disease (spontaneous tumors; metastatic thyroid carcinoma, switched from 1 hr to 8 hr infusion): 40 weeks | duration of continued partial response (spontaneous tumors; oral malignant melanoma with extravasation event, on 8 hour infusion protocol): 12 weeks | duration of stable disease (spontaneous tumors; two dogs, both metastatic OSA, 8 hour infusion 9.5 mg/kg): 12 weeks | HSP70 expression (Western blot) (HSP70; PBMCs, 24 hours after 9.5 mg/kg over 8 hours): small increases in HSP70 expression | time to upregulation of HSP70 protein expression (HSP70; tumor specimens and PBMCs, following drug administration): ≤ 7 h | HSP90 expression levels (Western blot) (HSP90): did not appear to change substantially | activity compared with 17-AAG [2]: superior activity | tumor effect (OSA xenografts): induced tumor regression
